Test results as given in patent US4059687A, “Ester substituted dibiguanides and non-toxic antimicrobial compositions thereof” (Colgate Palmolive Company, priority 1976, dated 1977).
In brackets after ≈: the same amount, converted by molar mass. Counter-ions that a name gives are not always drawn.

Assays:
[1] = tested on: Streptococcus mutans; assay: test tube serial dilution test (minimal inhibitory concentration), Strep. mutans (Gram positive); assay type: cell-based; settings: broth serial dilution; for MIC: Streptococcus mutans, read-out: Minimum Inhibitory Concentration, Strep. mutans
Text: (§1) It has been observed that the compounds generally described by the foregoing formula are particularly effective against gram positive organisms such as Staphylococcus aureus, Streptococcus sanguis and Streptococcus mutans; gram negative organisms such as Pseudomonas aeruginosa and Escherichia coli; and against fungi, such as Candida alibicans (yeast) and Trichophyton mentogrophytes and Aspergillus niger (mold). Compounds wherein A or B is a carboxyl radical in lieu of instant alkyl ester radical are substantially devoid of antibacterial activity.
(§2) The anti-microbial nature of the instant novel nontoxic compounds was shown by a standard test tube serial dilution test in which an appropriate number of test tubes of broth containing decreasing concentrations of the test agent was innoculated with the test organism (0.1% in ethyl alcohol). After a suitable period of incubation, the tubes were examined for the presence or absence of growth. The activity of the test agent was the lowest concentration which inhibited the growth of the organism and is expressed as the minimal inhibitory concentration in μ gm/ml. As shown in the following table of antimicrobial data, the dibiguanides of this invention are active against a variety of micro-organisms with maximum activity with a butyl and pentyl ester substituent on the phenyl radical.

[2] = tested on: Aspergillus niger; assay: test tube serial dilution test (minimal inhibitory concentration), A. niger (mold); assay type: cell-based; settings: broth serial dilution; for MIC: Aspergillus niger, read-out: Minimum Inhibitory Concentration, A. niger
Text: as §1, §2

[3] = tested on: Escherichia coli; assay: test tube serial dilution test (minimal inhibitory concentration), E. coli (Gram negative); assay type: cell-based; settings: broth serial dilution; for MIC: Escherichia coli, read-out: Minimum Inhibitory Concentration, E. coli
Text: as §1, §2

[4] = tested on: Staphylococcus aureus; assay: test tube serial dilution test (minimal inhibitory concentration), S. aureus (Gram positive); assay type: cell-based; settings: broth serial dilution; for MIC: Staphylococcus aureus, read-out: Minimum Inhibitory Concentration, S. aureus
Text: as §1, §2

[5] = tested on: Pseudomonas aeruginosa; assay: test tube serial dilution test (minimal inhibitory concentration), Ps. aeruginosa (Gram negative); assay type: cell-based; settings: broth serial dilution; for MIC: Pseudomonas aeruginosa, read-out: Minimum Inhibitory Concentration, Ps. aeruginosa
Text: as §1, §2

[6] = tested on: Streptococcus sanguis; assay: test tube serial dilution test (minimal inhibitory concentration), Strep. sanguis (Gram positive); assay type: cell-based; settings: broth serial dilution; for MIC: Streptococcus, read-out: Minimum Inhibitory Concentration, Strep. sanguis
Text: as §1, §2

[7] = tested on: Trichophyton mentogrophytes; assay: test tube serial dilution test (minimal inhibitory concentration), T. ment (mold); assay type: cell-based; settings: broth serial dilution; for MIC: Trichophyton, read-out: Minimum Inhibitory Concentration, T. ment
Text: as §1, §2

[8] = tested on: C. albicans; assay: test tube serial dilution test (minimal inhibitory concentration), C. albicans (yeast); assay type: cell-based; settings: broth serial dilution; for MIC: Candida albicans, read-out: Minimum Inhibitory Concentration, C. albicans
Text: as §1, §2

[9] = literature; cited from earlier work
[10] = on standing; cited from earlier work
[11] = tested on: dental plaque; settings: background statement; cited from earlier work

Compound	MIC [1] [µg/mL]	MIC [2] [µg/mL]	MIC [3] [µg/mL]	MIC [4] [µg/mL]	MIC [5] [µg/mL]	MIC [6] [µg/mL]	MIC [7] [µg/mL]	MIC [8] [µg/mL]	Minimum Inhibitory Concentration, Strep. mutans [1]	Minimum Inhibitory Concentration, A. niger [2] [μgm/ml]	Minimum Inhibitory Concentration, E. coli [3]	Minimum Inhibitory Concentration, S. aureus [4]	Minimum Inhibitory Concentration, Ps. aeruginosa [5] [μgm/ml]	Minimum Inhibitory Concentration, Strep. sanguis [6]	Minimum Inhibitory Concentration, T. ment [7] [μgm/ml]	Minimum Inhibitory Concentration, C. albicans [8] [μgm/ml]	bacteriostatic activity in words [9]	hydrolysis of solutions to p-chloroaniline [10]	antibacterial effect against dental plaque [11]
CC(C)OC(=O)c1ccc(NC(=N)NC(=N)NCCCCCCNC(=N)NC(=N)Nc2ccc(C(=O)OC(C)C)cc2)cc1 [A = (CH3)2 CHOCO, B = H]	0.1 (≈ 0.164 µM)	50 (≈ 82.1 µM)	1.56 (≈ 2.56 µM)	0.19 (≈ 0.312 µM)	25 (≈ 41.1 µM)	6.25 (≈ 10.3 µM)	6.25 (≈ 10.3 µM)	1.56 (≈ 2.56 µM)											
CCOC(=O)c1ccc(NC(=N)NC(=N)NCCCCCCNC(=N)NC(=N)Nc2ccc(C(=O)OCC)cc2)cc1 [A = C2 H5 OCO, B = H, N,N"-bis(4-ethoxycarbonylphenyl)-3,12-diimino-2,4,11,13-tetraazatetradecanediimidamide dihydrochloride]	0.39	100	1.56	0.78	25	25	12.5	12.5											
CCCOC(=O)c1ccc(NC(=N)NC(=N)NCCCCCCNC(=N)NC(=N)Nc2ccc(C(=O)OCCC)cc2)cc1 [A = C3 H7 OCO, B = H]	< 0.05	100 (≈ 164 µM)	1.56 (≈ 2.56 µM)	0.19 (≈ 0.312 µM)	25 (≈ 41.1 µM)	3.12 (≈ 5.13 µM)	3.12 (≈ 5.13 µM)	3.12 (≈ 5.13 µM)											
CCCCOC(=O)c1ccc(NC(=N)NC(=N)NCCCCCCNC(=N)NC(=N)Nc2ccc(C(=O)OCCCC)cc2)cc1 [A = C4 H9 OCO, B = H]									< .05 μgm/ml	50	1.56 μgm/ml	0.1 μgm/ml	12.5	.78 μgm/ml	12.5	0.78			
CCCCCOC(=O)c1ccc(NC(=N)NC(=N)NCCCCCCNC(=N)NC(=N)Nc2ccc(C(=O)OCCCCC)cc2)cc1 [A = C5 H11 OCO, B = H]	< 0.05	50 (≈ 75.2 µM)	25 (≈ 37.6 µM)	0.39 (≈ 0.587 µM)	50 (≈ 75.2 µM)	0.19 (≈ 0.286 µM)	25 (≈ 37.6 µM)	0.39 (≈ 0.587 µM)											
CCCCCCOC(=O)c1ccc(NC(=N)NC(=N)NCCCCCCNC(=N)NC(=N)Nc2ccc(C(=O)OCCCCCC)cc2)cc1 [A = C6 H13 OCO, B = H]	0.39 (≈ 0.563 µM)	100 (≈ 144 µM)	6.25 (≈ 9.02 µM)	0.39 (≈ 0.563 µM)	50 (≈ 72.2 µM)	0.39 (≈ 0.563 µM)	12.5 (≈ 18 µM)	0.39 (≈ 0.563 µM)											
CCCCCCCCOC(=O)c1ccc(NC(=N)NC(=N)NCCCCCCNC(=N)NC(=N)Nc2ccc(C(=O)OCCCCCCCC)cc2)cc1 [A = C8 H17 OCO, B = H, N,N"-bis(4-Octyloxycarbonylphenyl)-3,12-diimino-2,4,11,13-tetraazatetradecanediimidamide dihydrochloride]	1.56	100	12.5	1.56	50	25	25	12.5											
COC(=O)c1ccc(NC(=N)NC(=N)NCCCCCCNC(=N)NC(=N)Nc2ccc(C(=O)OC)cc2)cc1 [A = CH3 OCO, B = H]									1.56 μgm/ml	100	25 μgm/ml	6.25 μgm/ml	50	50 μgm/ml	12.5	25			
N=C(NCCCCCCNC(=N)NC(=N)Nc1ccc(C(=O)O)cc1)NC(=N)Nc1ccc(C(=O)O)cc1 [A = COOH, B = H, reference compound]	25 (≈ 47.7 µM)	100 (≈ 191 µM)	100 (≈ 191 µM)	10 (≈ 19.1 µM)	50 (≈ 95.3 µM)	100 (≈ 191 µM)	100 (≈ 191 µM)	100 (≈ 191 µM)											
CC(C)OC(=O)c1cccc(NC(=N)NC(=N)NCCCCCCNC(=N)NC(=N)Nc2cccc(C(=O)OC(C)C)c2)c1 [A = H, B = (CH3)2 CHOCO, dihydrochloride]	0.1	50	3.12	0.19	50	12.5	12.5	3.12											
CCCCOC(=O)c1cccc(NC(=N)NC(=N)NCCCCCCNC(=N)NC(=N)Nc2cccc(C(=O)OCCCC)c2)c1 [A = H, B = C4 H9 OCO]	< 0.05	50 (≈ 78.5 µM)	0.78 (≈ 1.22 µM)	< 0.05	12.5 (≈ 19.6 µM)	1.56 (≈ 2.45 µM)	6.25 (≈ 9.81 µM)	0.39 (≈ 0.612 µM)											
COC(=O)c1cccc(NC(=N)NC(=N)NCCCCCCNC(=N)NC(=N)Nc2cccc(C(=O)OC)c2)c1 [A = H, B = CH3 OCO]	1.56 (≈ 2.82 µM)	100 (≈ 181 µM)	12.5 (≈ 22.6 µM)	3.12 (≈ 5.65 µM)	50 (≈ 90.5 µM)	100 (≈ 181 µM)	12.5 (≈ 22.6 µM)	25 (≈ 45.2 µM)											
N=C(NCCCCCCNC(=N)NC(=N)Nc1ccc(Cl)cc1)NC(=N)Nc1ccc(Cl)cc1 [Chlorhexidine hydrochloride, reference compound]									< .05 μgm/ml	25	.78 μgm/ml	.19 μgm/ml	12.5	6.25 μgm/ml	1.56	3.12			
N=C(NCCCCCCNC(=N)NC(=N)Nc1ccc(Cl)cc1)NC(=N)Nc1ccc(Cl)cc1 [Chlorhexidine, reference compound]	< 0.05	25 (≈ 49.5 µM)		0.19 (≈ 0.376 µM)				1.56 (≈ 3.09 µM)			0.19 μgm/ml			3.12 μgm/ml			selected as the best	hydrolyze on standing to form additional amounts of p-chloroaniline	effective antibacterial agent against dental plaque
CCCCOC(=O)c1ccc(NC(=N)NC(=N)NCCCCCCNC(=N)NC(=N)Nc2ccc(C(=O)OCCCC)cc2)cc1 [drawing 6: A = C4 H9 OCO, B = H]	< 0.05	100 (≈ 157 µM)	3.12 (≈ 4.9 µM)	0.05 (≈ 0.0785 µM)	25 (≈ 39.3 µM)	0.78 (≈ 1.22 µM)		0.78 (≈ 1.22 µM)							0.19				
COC(=O)c1ccc(NC(=N)NC(=N)NCCCCCCNC(=N)NC(=N)Nc2ccc(C(=O)OC)cc2)cc1 [drawing 6: A = CH3 OCO, B = H]		100 (≈ 181 µM)	50 (≈ 90.5 µM)		25 (≈ 45.2 µM)	50 (≈ 90.5 µM)	25 (≈ 45.2 µM)	25 (≈ 45.2 µM)	25 μgm/ml			3.12 μgm/ml							
